Columns and labels:
Set-up in all cases: scale not given here
ABUTH Velvetleaf [1] = experiment: Postemergence herbicidal evaluation, ABUTH; format: in vivo, Abutilon theophrasti, Medic.; conditions: postemergence spray, rated about two-three weeks after treatment
Procedure, shortened: (§1)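 Plants are raised for roughly two weeks, then treated postemergence with compound dispersed in acetone/water (80/20) plus 1.0% seed oil adjuvant, at rates of about 0.006 kg to 0.400 kg per hectare. After greenhouse care, damage is scored two to three weeks later.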

AMBEL Ragweed, Common [2] = experiment: Postemergence herbicidal evaluation, AMBEL; format: in vivo, Ambrosia artemisifolia, L.; conditions: postemergence spray, rated about two-three weeks after treatment
Procedure, shortened: as §1

CASOB Sicklepod [3] = experiment: Postemergence herbicidal evaluation, CASOB; format: in vivo, Cassia obtusifolia, L.; conditions: postemergence spray, rated about two-three weeks after treatment
Procedure, shortened: as §1

[4] = tested on: CHEAL Lambsquarters, Common; experiment: Postemergence herbicidal evaluation, CHEAL; format: in vivo, Chenopodium album, L.; conditions: postemergence spray, rated about two-three weeks after treatment
Procedure, shortened: as §1

ECHOG Barnyardgrass [5] = experiment: Postemergence herbicidal evaluation, ECHOG; format: in vivo, Echinochloa crus-galli, (L.) Beau; conditions: postemergence spray, rated about two-three weeks after treatment
Procedure, shortened: as §1

GALAP Galium [6] = experiment: Postemergence herbicidal evaluation, GALAP; format: in vivo, Galium aparine; conditions: postemergence spray, rated about two-three weeks after treatment
Procedure, shortened: as §1

[7] = tested on: IPOHE Morningglory, Ivyleaf; experiment: Postemergence herbicidal evaluation, IPOHE; format: in vivo, Ipomoea hederacea, (L.) Jacq.; conditions: postemergence spray, rated about two-three weeks after treatment
Procedure, shortened: as §1

SETVI Foxtail, Green [8] = experiment: Postemergence herbicidal evaluation, SETVI; format: in vivo, Setaria viridis, (L.) Beau; conditions: postemergence spray, rated about two-three weeks after treatment
Procedure, shortened: as §1

GLXMAW Soybean, Williams [9] = experiment: Postemergence herbicidal evaluation, GLXMAW; format: in vivo, Glycine max, (L.) Merr. cv Williams; conditions: postemergence spray, rated about two-three weeks after treatment
Procedure, shortened: as §1

[10] = tested on: TRZAWR Wheat, Winter, cv Riband; experiment: Postemergence herbicidal evaluation, TRZAWR; format: in vivo, Triticum aestivum; conditions: postemergence spray, rated about two-three weeks after treatment
Procedure, shortened: as §1

ORYSAT Rice, Tebonnet [11] = experiment: Postemergence herbicidal evaluation, ORYSAT; format: in vivo, Oryza sativa, (L.); conditions: postemergence spray, rated about two-three weeks after treatment
Procedure, shortened: as §1

ZEAMX Corn, Field [12] = experiment: Postemergence herbicidal evaluation, ZEAMX; format: in vivo, Zea mays, L. (Sammel-Bezeichnung); conditions: postemergence spray, rated about two-three weeks after treatment
Procedure, shortened: as §1

ABUTH Velvetleaf [13] = experiment: Preemergence herbicidal evaluation, ABUTH; format: in vivo, Abutilon theophrasti, Medic.; conditions: preemergence
Procedure, shortened: (§2)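 Preemergence soil spray: aqueous acetone, ~0.013–0.800 kg/ha, applied right after sowing (seed/potting-soil mix over ~1 in soil). Greenhouse, routine watering. Scored 4–5 wk post-treatment on a rating scale.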

AMBEL Ragweed, Common [14] = experiment: Preemergence herbicidal evaluation, AMBEL; format: in vivo, Ambrosia artemisifolia, L.; conditions: preemergence
Procedure, shortened: as §2

CASOB Sicklepod [15] = experiment: Preemergence herbicidal evaluation, CASOB; format: in vivo, Cassia obtusifolia, L.; conditions: preemergence
Procedure, shortened: as §2

[16] = tested on: CHEAL Lambsquarters, Common; experiment: Preemergence herbicidal evaluation, CHEAL; format: in vivo, Chenopodium album, L.; conditions: preemergence
Procedure, shortened: as §2

ECHOG Barnyardgrass [17] = experiment: Preemergence herbicidal evaluation, ECHOG; format: in vivo, Echinochloa crus-galli, (L.) Beau; conditions: preemergence
Procedure, shortened: as §2

GALAP Galium [18] = experiment: Preemergence herbicidal evaluation, GALAP; format: in vivo, Galium aparine; conditions: preemergence
Procedure, shortened: as §2

[19] = tested on: IPOHE Morningglory, Ivyleaf; experiment: Preemergence herbicidal evaluation, IPOHE; format: in vivo, Ipomoea hederacea, (L.) Jacq.; conditions: preemergence
Procedure, shortened: as §2

SETVI Foxtail, Green [20] = experiment: Preemergence herbicidal evaluation, SETVI; format: in vivo, Setaria viridis, (L.) Beau; conditions: preemergence
Procedure, shortened: as §2

GLXMAW Soybean, Williams [21] = experiment: Preemergence herbicidal evaluation, GLXMAW; format: in vivo, Glycine max, (L.) Merr. cv Williams; conditions: preemergence
Procedure, shortened: as §2

[22] = tested on: TRZAWR Wheat, Winter, cv Riband; experiment: Preemergence herbicidal evaluation, TRZAWR; format: in vivo, Triticum aestivum; conditions: preemergence
Procedure, shortened: as §2

ORYSAT Rice, Tebonnet [23] = experiment: Preemergence herbicidal evaluation, ORYSAT; format: in vivo, Oryza sativa, (L.); conditions: preemergence
Procedure, shortened: as §2

ZEAMX Corn, Field [24] = experiment: Preemergence herbicidal evaluation, ZEAMX; format: in vivo, Zea mays, L. (Sammel-Bezeichnung); conditions: preemergence
Procedure, shortened: as §2

COC(=O)COc1ccc(-n2nnc3cc(F)c(-n4c(=O)cc(C(F)(F)F)n(C)c4=O)cc32)c(C)c1 [Example 39]
Postemergence herbicidal rating ABUTH (ABUTH Velvetleaf [1]; 0.008 kg/ha): 9.0
Postemergence herbicidal rating ABUTH (ABUTH Velvetleaf [1]; 0.016 kg/ha): 9.0
Postemergence herbicidal rating ABUTH (ABUTH Velvetleaf [1]; 0.032 kg/ha): 9.0
Postemergence herbicidal rating ABUTH (ABUTH Velvetleaf [1]; 0.062 kg/ha): 9.0
Postemergence herbicidal rating AMBEL (AMBEL Ragweed, Common [2]; 0.008 kg/ha): 0.0
Postemergence herbicidal rating AMBEL (AMBEL Ragweed, Common [2]; 0.016 kg/ha): 0.0
Postemergence herbicidal rating AMBEL (AMBEL Ragweed, Common [2]; 0.032 kg/ha): 6.0
Postemergence herbicidal rating AMBEL (AMBEL Ragweed, Common [2]; 0.062 kg/ha): 7.0
Postemergence herbicidal rating CASOB (CASOB Sicklepod [3]; 0.008 kg/ha): 0.0
Postemergence herbicidal rating CASOB (CASOB Sicklepod [3]; 0.016 kg/ha): 0.0
Postemergence herbicidal rating CASOB (CASOB Sicklepod [3]; 0.032 kg/ha): 0.0
Postemergence herbicidal rating CASOB (CASOB Sicklepod [3]; 0.062 kg/ha): 2.0
Postemergence herbicidal rating CHEAL ([4]; 0.008 kg/ha): 0.0
Postemergence herbicidal rating CHEAL ([4]; 0.016 kg/ha): 2.0
Postemergence herbicidal rating CHEAL ([4]; 0.032 kg/ha): 2.0
Postemergence herbicidal rating CHEAL ([4]; 0.062 kg/ha): 7.0
Postemergence herbicidal rating ECHCG (ECHOG Barnyardgrass [5]; 0.008 kg/ha): 0.0
Postemergence herbicidal rating ECHCG (ECHOG Barnyardgrass [5]; 0.016 kg/ha): 0.0
Postemergence herbicidal rating ECHCG (ECHOG Barnyardgrass [5]; 0.032 kg/ha): 0.0
Postemergence herbicidal rating ECHCG (ECHOG Barnyardgrass [5]; 0.062 kg/ha): 3.0
Postemergence herbicidal rating GALAP (GALAP Galium [6]; 0.008 kg/ha): 0.0
Postemergence herbicidal rating GALAP (GALAP Galium [6]; 0.016 kg/ha): 0.0
Postemergence herbicidal rating GALAP (GALAP Galium [6]; 0.032 kg/ha): 3.0
Postemergence herbicidal rating GALAP (GALAP Galium [6]; 0.062 kg/ha): 3.0
Postemergence herbicidal rating IPOHE ([7]; 0.008 kg/ha): 9.0
Postemergence herbicidal rating IPOHE ([7]; 0.016 kg/ha): 8.0
Postemergence herbicidal rating IPOHE ([7]; 0.032 kg/ha): 9.0
Postemergence herbicidal rating IPOHE ([7]; 0.062 kg/ha): 9.0
Postemergence herbicidal rating SETVI (SETVI Foxtail, Green [8]; 0.008 kg/ha): 0.0
Postemergence herbicidal rating SETVI (SETVI Foxtail, Green [8]; 0.016 kg/ha): 0.0
Postemergence herbicidal rating SETVI (SETVI Foxtail, Green [8]; 0.032 kg/ha): 0.0
Postemergence herbicidal rating SETVI (SETVI Foxtail, Green [8]; 0.062 kg/ha): 2.0
Postemergence herbicidal rating GLXMAW (GLXMAW Soybean, Williams [9]; 0.008 kg/ha): 3.5
Postemergence herbicidal rating GLXMAW (GLXMAW Soybean, Williams [9]; 0.016 kg/ha): 3.5
Postemergence herbicidal rating GLXMAW (GLXMAW Soybean, Williams [9]; 0.032 kg/ha): 4.0
Postemergence herbicidal rating GLXMAW (GLXMAW Soybean, Williams [9]; 0.062 kg/ha): 5.0
Postemergence herbicidal rating TRZAWR ([10]; 0.008 kg/ha): 2.5
Postemergence herbicidal rating TRZAWR ([10]; 0.016 kg/ha): 3.0
Postemergence herbicidal rating TRZAWR ([10]; 0.032 kg/ha): 3.5
Postemergence herbicidal rating TRZAWR ([10]; 0.062 kg/ha): 5.5
Postemergence herbicidal rating ORYSAT (ORYSAT Rice, Tebonnet [11]; 0.008 kg/ha): 0.0
Postemergence herbicidal rating ORYSAT (ORYSAT Rice, Tebonnet [11]; 0.016 kg/ha): 0.5
Postemergence herbicidal rating ORYSAT (ORYSAT Rice, Tebonnet [11]; 0.032 kg/ha): 1.0
Postemergence herbicidal rating ORYSAT (ORYSAT Rice, Tebonnet [11]; 0.062 kg/ha): 4.0
Postemergence herbicidal rating ZEAMX (ZEAMX Corn, Field [12]; 0.008 kg/ha): 7.0
Postemergence herbicidal rating ZEAMX (ZEAMX Corn, Field [12]; 0.016 kg/ha): 7.5
Postemergence herbicidal rating ZEAMX (ZEAMX Corn, Field [12]; 0.032 kg/ha): 7.5
Postemergence herbicidal rating ZEAMX (ZEAMX Corn, Field [12]; 0.062 kg/ha): 7.5
ABUTH herbicidal rating (ABUTH Velvetleaf [13]; rate 0.016 kg/ha): 0.0
ABUTH herbicidal rating (ABUTH Velvetleaf [13]; rate 0.032 kg/ha): 5.0
ABUTH herbicidal rating (ABUTH Velvetleaf [13]; rate 0.062 kg/ha): 9.0
ABUTH herbicidal rating (ABUTH Velvetleaf [13]; rate 0.125 kg/ha): 9.0
AMBEL herbicidal rating (AMBEL Ragweed, Common [14]; rate 0.016 kg/ha): 0.0
AMBEL herbicidal rating (AMBEL Ragweed, Common [14]; rate 0.032 kg/ha): 0.0
AMBEL herbicidal rating (AMBEL Ragweed, Common [14]; rate 0.062 kg/ha): 0.0
AMBEL herbicidal rating (AMBEL Ragweed, Common [14]; rate 0.125 kg/ha): 0.0
CASOB herbicidal rating (CASOB Sicklepod [15]; rate 0.016 kg/ha): 0.0
CASOB herbicidal rating (CASOB Sicklepod [15]; rate 0.032 kg/ha): 0.0
CASOB herbicidal rating (CASOB Sicklepod [15]; rate 0.062 kg/ha): 0.0
CASOB herbicidal rating (CASOB Sicklepod [15]; rate 0.125 kg/ha): 0.0
CHEAL herbicidal rating ([16]; rate 0.016 kg/ha): 3.0
CHEAL herbicidal rating ([16]; rate 0.032 kg/ha): 3.0
CHEAL herbicidal rating ([16]; rate 0.062 kg/ha): 9.0
CHEAL herbicidal rating ([16]; rate 0.125 kg/ha): 9.0
ECHCG herbicidal rating (ECHOG Barnyardgrass [17]; rate 0.016 kg/ha): 0.0
ECHCG herbicidal rating (ECHOG Barnyardgrass [17]; rate 0.032 kg/ha): 0.0
ECHCG herbicidal rating (ECHOG Barnyardgrass [17]; rate 0.062 kg/ha): 0.0
ECHCG herbicidal rating (ECHOG Barnyardgrass [17]; rate 0.125 kg/ha): 0.0
GALAP herbicidal rating (GALAP Galium [18]; rate 0.016 kg/ha): 0.0
GALAP herbicidal rating (GALAP Galium [18]; rate 0.032 kg/ha): 0.0
GALAP herbicidal rating (GALAP Galium [18]; rate 0.062 kg/ha): 0.0
GALAP herbicidal rating (GALAP Galium [18]; rate 0.125 kg/ha): 7.0
IPOHE herbicidal rating ([19]; rate 0.016 kg/ha): 0.0
IPOHE herbicidal rating ([19]; rate 0.032 kg/ha): 0.0
IPOHE herbicidal rating ([19]; rate 0.062 kg/ha): 0.0
IPOHE herbicidal rating ([19]; rate 0.125 kg/ha): 3.0
SETVI herbicidal rating (SETVI Foxtail, Green [20]; rate 0.016 kg/ha): 0.0
SETVI herbicidal rating (SETVI Foxtail, Green [20]; rate 0.032 kg/ha): 0.0
SETVI herbicidal rating (SETVI Foxtail, Green [20]; rate 0.062 kg/ha): 0.0
SETVI herbicidal rating (SETVI Foxtail, Green [20]; rate 0.125 kg/ha): 4.0
GLXMAW herbicidal rating (GLXMAW Soybean, Williams [21]; rate 0.016 kg/ha): 0.0
GLXMAW herbicidal rating (GLXMAW Soybean, Williams [21]; rate 0.032 kg/ha): 0.0
GLXMAW herbicidal rating (GLXMAW Soybean, Williams [21]; rate 0.062 kg/ha): 0.0
GLXMAW herbicidal rating (GLXMAW Soybean, Williams [21]; rate 0.125 kg/ha): 0.0
TRZAWR herbicidal rating ([22]; rate 0.016 kg/ha): 0.0
TRZAWR herbicidal rating ([22]; rate 0.032 kg/ha): 0.0
TRZAWR herbicidal rating ([22]; rate 0.062 kg/ha): 0.0
TRZAWR herbicidal rating ([22]; rate 0.125 kg/ha): 0.0
ORYSAT herbicidal rating (ORYSAT Rice, Tebonnet [23]; rate 0.016 kg/ha): 0.0
ORYSAT herbicidal rating (ORYSAT Rice, Tebonnet [23]; rate 0.032 kg/ha): 0.0
ORYSAT herbicidal rating (ORYSAT Rice, Tebonnet [23]; rate 0.062 kg/ha): 0.0
ORYSAT herbicidal rating (ORYSAT Rice, Tebonnet [23]; rate 0.125 kg/ha): 3.0
ZEAMX herbicidal rating (ZEAMX Corn, Field [24]; rate 0.016 kg/ha): 0.0
ZEAMX herbicidal rating (ZEAMX Corn, Field [24]; rate 0.032 kg/ha): 0.0
ZEAMX herbicidal rating (ZEAMX Corn, Field [24]; rate 0.062 kg/ha): 0.0
ZEAMX herbicidal rating (ZEAMX Corn, Field [24]; rate 0.125 kg/ha): 0.0
